Assay results as given in patent US20180072997A1, “INHIBITORS OF HUMAN IMMUNODEFICIENCY VIRUS REPLICATION” (ViiV HEATHCARE UK (NO.5) LIMITED, priority 2015, published 2018).

Legend:
[1] = Compound cytotoxicity, XTT-based colorimetric assay; format: cell-based; conditions: human, uninfected MT2 cells, day 4, XTT
Method in brief: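 Run under the antiviral-assay protocol but without virus. Viability was read on day 4 and CC50 values were derived from the readout.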

[2] = system: recombinant NL4-3 virus (Renilla luciferase in nef) in MT-2 cells; experiment: whole plant or invertebrate; format: cell-based, HIV; conditions: Renilla, NL43, MT-2 cells infected for 4-5 days with recombinant NL4-3 Renilla luciferase virus; luciferase activity
Method in brief: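 MT-2 cells infected for 4-5 days with NL4-3 reporter virus (Renilla luciferase replacing part of nef, produced by transfection of 293T cells) in the presence of serial compound dilutions. Antiviral activity quantified by luciferase activity read with a live-cell substrate.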

| SMILES | CC50 at 4 days [1] | EC50 [2] |
| --- | --- | --- |
| COc1ccc(N(C)C(=O)[C@H](Cc2ccccc2)NC(=O)c2cc(C(=O)N[C@@H](Cc3ccccc3)C(=O)N(C)c3ccc(OC)cc3)on2)cc1 [Example 116] | 1.5 µM | 0.71 µM |
| COc1ccc(N(C)C(=O)[C@H](Cc2ccccc2)NC(=O)/C=C/CC(=O)N[C@@H](Cc2ccccc2)C(=O)N(C)c2ccc(OC)cc2)cc1 [Example 117] | 30.8 µM | 0.64 µM |
| CN(C(=O)[C@H](Cc1cc(F)cc(F)c1)NC(=O)Cn1c(=O)n(CC(=O)N[C@@H](Cc2cc(F)cc(F)c2)C(=O)N(C)c2ccc3scnc3c2)c2ccccc21)c1ccc2scnc2c1 [Example 119] | ≥ 100 µM | 0.01 µM |
| C=CCN(C(=O)[C@H](Cc1cc(F)cc(F)c1)NC(=O)NS(=O)(=O)N[C@@H](Cc1cc(F)cc(F)c1)C(=O)N(CC=C)c1ccc(OC)cc1)c1ccc(OC)cc1 [Example 120] | 23.3 µM | 0.26 µM |
| C=CCCN(C(=O)[C@H](Cc1cc(F)cc(F)c1)NC(=O)NS(=O)(=O)N[C@@H](Cc1cc(F)cc(F)c1)C(=O)N(CCC=C)c1ccc(OC)cc1)c1ccc(OC)cc1 [Example 121] | 18.8 µM | 0.73 µM |
| COc1ccc(N(CCF)C(=O)[C@H](Cc2cc(F)cc(F)c2)NC(=O)CN2c3ccccc3N(CC(=O)N[C@@H](Cc3cc(F)cc(F)c3)C(=O)N(CCF)c3ccc(OC)cc3)S2(=O)=O)cc1 [Example 122] | ≥ 100 µM | 0.09 µM |
| C=CCCN(C(=O)[C@H](Cc1cc(F)cc(F)c1)NS(=O)(=O)NC(=O)N[C@@H](Cc1cc(F)cc(F)c1)C(=O)N(CC=C)c1ccc(OC)cc1)c1ccc(OC)cc1 [Example 123] | 19.2 µM | 0.38 µM |
| COc1ccc(N(C)C(=O)[C@H](Cc2ccccc2)Nc2nc(N)nc(N[C@@H](Cc3ccccc3)C(=O)N(C)c3ccc(OC)cc3)n2)cc1 [Example 124] | 31 µM | 3.8 µM |
| COc1ccc(N(CCF)C(=O)[C@H](Cc2cc(F)cc(F)c2)NC(=O)Cn2c(=O)n(CC(=O)N[C@@H](Cc3cc(F)cc(F)c3)C(=O)N(CCF)c3ccc(OC)cc3)c3ccccc32)cc1 [Example 125] | ≥ 100 µM | 0.34 µM |
| CN(C(=O)[C@H](Cc1cc(F)cc(F)c1)NC(=O)c1ccc(F)c(C(=O)N[C@@H](Cc2cc(F)cc(F)c2)C(=O)N(C)c2ccc3scnc3c2)c1)c1ccc2scnc2c1 [Example 126] | ≥ 100 µM | 0.01 µM |
| Cc1cc(C(=O)N[C@@H](Cc2cc(F)cc(F)c2)C(=O)N(C)c2ccc3scnc3c2)cc(C(=O)N[C@@H](Cc2cc(F)cc(F)c2)C(=O)N(C)c2ccc3scnc3c2)c1 [Example 127] | 3.8 µM | 0.01 µM |
| CN(C(=O)[C@H](Cc1cc(F)cc(F)c1)NC(=O)/C=C\C(=O)N[C@@H](Cc1cc(F)cc(F)c1)C(=O)N(C)c1ccc2scnc2c1)c1ccc2scnc2c1 [Example 128] | 12.6 µM | 0.08 µM |
| CN(C(=O)[C@H](Cc1cc(F)cc(F)c1)NC(=O)c1cncc(C(=O)N[C@@H](Cc2cc(F)cc(F)c2)C(=O)N(C)c2ccc3scnc3c2)c1)c1ccc2scnc2c1 [Example 129] | 5.3 µM | 0.01 µM |
| CN(C(=O)[C@H](Cc1ccccc1)Nc1nccc(-c2ccnc(N[C@@H](Cc3ccccc3)C(=O)N(C)c3ccc4scnc4c3)n2)n1)c1ccc2scnc2c1 [Example 135] | 0.5 µM | 0.09 µM |
| CN(C(=O)[C@H](Cc1ccccc1)Nc1ncc(-c2cnc(N[C@@H](Cc3ccccc3)C(=O)N(C)c3ccc4scnc4c3)nc2)cn1)c1ccc2scnc2c1 [Example 136] | ≥ 100 µM | 0.34 µM |
| C=CCCN(C(=O)[C@H](Cc1cc(F)cc(F)c1)NC(=O)NS(=O)(=O)N[C@@H](Cc1cc(F)cc(F)c1)C(=O)N(CC=C)c1ccc(OC)cc1)c1ccc(OC)cc1 [Example 138] | 12.9 µM | 0.26 µM |
| C=CCN(C(=O)[C@H](Cc1cc(F)cc(F)c1)NC(=O)c1ccc(F)c(C(=O)N[C@@H](Cc2cc(F)cc(F)c2)C(=O)N(CC=C)c2ccc(OC)cc2)c1)c1ccc(OC)cc1 [Example 139] | ≥ 33.3 µM | 0.04 µM |
| C=CCN(C(=O)[C@H](Cc1cc(F)cc(F)c1)NC(=O)NS(=O)(=O)N[C@@H](Cc1cc(F)cc(F)c1)C(=O)N(CC=C)c1ccc2scnc2c1)c1ccc2scnc2c1 [Example 140] | 32.7 µM | 0.1 µM |
| COc1ccc(N(C)C(=O)[C@H](Cc2ccccc2)Nc2ccnc(N[C@@H](Cc3ccccc3)C(=O)N(C)c3ccc(OC)cc3)n2)cc1 [Example 145] | 19.1 µM | 12 µM |
| CN(C(=O)[C@H](Cc1cc(F)cc(F)c1)Nc1ccnc(N[C@@H](Cc2cc(F)cc(F)c2)C(=O)N(C)c2ccc3scnc3c2)n1)c1ccc2scnc2c1 [Example 146] | 30.6 µM | 2.86 µM |

| SMILES | CC50 at 4 days [1] | EC50 [2] |
| --- | --- | --- |
| CCN(C(=O)[C@H](Cc1cc(F)cc(F)c1)NC(=O)CN1c2ccccc2N(CC(=O)N[C@@H](Cc2cc(F)cc(F)c2)C(=O)N(CC)c2ccc(OC(F)F)cc2)S1(=O)=O)c1ccc(OC(F)F)cc1 [Example 147] | ≥ 100 µM | 0.09 µM |
| CCN(C(=O)[C@H](Cc1cc(F)cc(F)c1)NC(=O)CN1c2ccccc2N(CC(=O)N[C@@H](Cc2cc(F)cc(F)c2)C(=O)N(CC)c2ccc(NC(=O)OC)cc2)S1(=O)=O)c1ccc(NC(=O)OC)cc1 [Example 148] | ≥ 100 µM | 0.72 µM |
| CCN(C(=O)[C@H](Cc1cc(F)cc(F)c1)NC(=O)NS(=O)(=O)N[C@@H](Cc1cc(F)cc(F)c1)C(=O)N(CC)c1ccc(NC(=O)OC)cc1)c1ccc(NC(=O)OC)cc1 [Example 149] | 79.5 µM | 1.64 µM |
| CCN(C(=O)[C@H](Cc1cc(F)cc(F)c1)NC(=O)NS(=O)(=O)N[C@@H](Cc1cc(F)cc(F)c1)C(=O)N(CC)c1ccc(OC(F)F)cc1)c1ccc(OC(F)F)cc1 [Example 150] | 24.6 µM | 0.01 µM |
| Cc1nc2cc(N(C)C(=O)[C@H](Cc3cc(F)cc(F)c3)NC(=O)NS(=O)(=O)N[C@@H](Cc3cc(F)cc(F)c3)C(=O)N(C)c3ccc4sc(C)nc4c3)ccc2s1 [Example 151] | 33.4 µM | 0.19 µM |
| CCN(C(=O)[C@H](Cc1cc(F)cc(F)c1)NC(=O)NS(=O)(=O)N[C@@H](Cc1cc(F)cc(F)c1)C(=O)N(CC)c1ccc2scnc2c1)c1ccc2scnc2c1 [Example 152] | 99.3 µM | 0.06 µM |
| CCN(C(=O)[C@H](Cc1cc(F)cc(F)c1)NC(=O)CN1c2ccccc2N(CC(=O)N[C@@H](Cc2cc(F)cc(F)c2)C(=O)N(CC)c2ccc3oc(=O)n(Cc4ccccc4)c3c2)S1(=O)=O)c1ccc2oc(=O)n(Cc3ccccc3)c2c1 [Example 153] | 3.1 µM | 1.54 µM |
| CN(C(=O)[C@H](Cc1ccccc1)NC(=O)c1ccnc(N[C@@H](Cc2ccccc2)C(=O)N(C)c2ccc3scnc3c2)n1)c1ccc2scnc2c1 [Example 154] | ≥ 100 µM | 1.86 µM |
| CCN(C(=O)[C@H](Cc1cc(F)cc(F)c1)NC(=O)CN1c2ccccc2N(CC(=O)N[C@@H](Cc2cc(F)cc(F)c2)C(=O)N(CC)c2ccc3oc(=O)n(CC)c3c2)S1(=O)=O)c1ccc2oc(=O)n(CC)c2c1 [Example 155] | ≥ 33.3 µM | 2.13 µM |
| CCN(C(=O)[C@H](Cc1cc(F)cc(F)c1)NC(=O)NS(=O)(=O)N[C@@H](Cc1cc(F)cc(F)c1)C(=O)N(CC)c1ccc2oc(=O)n(CC)c2c1)c1ccc2oc(=O)n(CC)c2c1 [Example 156] | ≥ 50 µM | 24.7 µM |
| COc1ccc(N(C)C(=O)[C@H](Cc2cc(F)cc(F)c2)Nc2ccnc(N[C@@H](Cc3cc(F)cc(F)c3)C(=O)N(C)c3ccc(OC)cc3)n2)cc1 [Example 158] | 12.4 µM | 9.53 µM |
| COc1ccc(-n2ccnc2C(Cc2ccccc2)NC(=O)NS(=O)(=O)N[C@@H](Cc2ccccc2)c2nccn2-c2ccc(OC)cc2)cc1 (some centres unmarked) [Example 159] | 86.4 µM | 3.68 µM |
| CN(C(=O)[C@H](Cc1cc(F)cc(F)c1)NC(=O)CN1c2ccccc2N(CC(=O)N[C@@H](Cc2cc(F)cc(F)c2)C(=O)N(C)c2ccc3sncc3c2)S1(=O)=O)c1ccc2sncc2c1 [Example 160] | ≥ 100 µM | 0.02 µM |
| COc1ccc(-n2ccnc2[C@H](Cc2ccccc2)NC(=O)c2cccc(C(=O)N[C@@H](Cc3ccccc3)c3nccn3-c3ccc(OC)cc3)c2)cc1 [Example 161] | 73.9 µM | 2.8 µM |
| CN(C(=O)[C@H](Cc1cc(F)cc(F)c1)NC(=O)NS(=O)(=O)N[C@@H](Cc1cc(F)cc(F)c1)C(=O)N(C)c1ccc2c(c1)OCCO2)c1ccc2c(c1)OCCO2 [Example 162] | 43.9 µM | 0.07 µM |
| C=CCN(C(=O)[C@H](Cc1cc(F)cc(F)c1)NS(=O)(=O)CS(=O)(=O)N[C@@H](Cc1cc(F)cc(F)c1)C(=O)N(CC=C)c1ccc(OC)cc1)c1ccc(OC)cc1 [Example 163] | ≥ 100 µM | 2.56 µM |
| C=CCN(C(=O)[C@H](Cc1cc(F)cc(F)c1)NS(=O)(=O)CCCS(=O)(=O)N[C@@H](Cc1cc(F)cc(F)c1)C(=O)N(CC=C)c1ccc(OC)cc1)c1ccc(OC)cc1 [Example 164] | ≥ 100 µM | 2.64 µM |
| CN(C(=O)[C@H](Cc1cc(F)cc(F)c1)NC(=O)NS(=O)(=O)N[C@@H](Cc1cc(F)cc(F)c1)C(=O)N(C)c1ccc(Cl)cc1)c1ccc(Cl)cc1 [Example 165] | 30.3 µM | 0.04 µM |
| COc1ccc(-n2ccnc2C(Cc2ccccc2)NC(=O)CN2c3ccccc3N(CC(=O)N[C@@H](Cc3ccccc3)c3nccn3-c3ccc(OC)cc3)S2(=O)=O)cc1 (some centres unmarked) [Example 166] | ≥ 100 µM | 6.7 µM |
| CN(C(=O)[C@H](Cc1ccccc1)NC(=O)NS(=O)(=O)N[C@@H](Cc1ccccc1)C(=O)N(C)c1ccc(C(C)(C)C)cc1)c1ccc(C(C)(C)C)cc1 [Example 167] | 26.5 µM | 0.27 µM |
